Measured values taken from US20150160193A1, “TUMOR CELL ISOLATION/PURIFICATION PROCESS AND METHODS FOR USE THEREOF” (DIATECH ONCOLOGY, priority 2012, published 2015).
Where two headings read alike, the source gives them in different places. *1 amine or outer side, *2 acyl side, *3 side chain or, on linkers, in order; H or OH if unused. Where a SMILES comes first, the peptide text is derived from it. Bridges are numbered along the chain shown (N, C = ends). Roman numbers before positions name the chains, in order. [ ]: non-standard residue; d: D form. Actinocin(9to1) = Cc1c2oc3c(C)ccc(C(=O)[*:1])c3nc-2c(C(=O)[*:2])c(N)c1=O; NMeV = CN[C@H](C(=O)O)C(C)C; Sar = CNCC(=O)O

How the values were obtained:
[1] = system: neoplastic cells collected from spleen and abdominal tumor biopsy specimens; test: MiCK assay, patient specific cancer cell testing (Example 10); assay type: cell-based, human
Description: The experiments were conducted on neoplastic cells collected from spleen and abdominal tumor biopsy specimens from a person. The tumor specimens were of an unknown primary. The experiment consisted of using a MiCK assay, according to the present disclosure, to test the effectiveness of 37 potential anti-cancer drugs, combinations of these drugs, and various concentrations of these drugs.
Apoptotic readings greater than 5.0KU in the MiCK assay are considered to be highly sensitive and are associated with a good clinical response. […] It should be noted that the alkylating agents cyclophosphamide and ifosfamide require hepatic metabolic transformation to their active metabolite, 4HC and 4HI respectively, and therefore cannot be tested directly in vitro. For the MiCK assay their active metabolites, 4HC and 4HI respectively were used.

[2] = system: Purified breast cancer cells from 67 patient (Pt) biopsies; test: MiCK assay of drug-induced apoptosis, breast cancer specimens; assay type: cell-based, human; settings: for KU Mean / KU Median: kinetic units of apoptosis; for KU Mean: mean over N patient samples (at least 9 per drug); for KU Median: median over N patient samples; for Mean Difference (95% CI) of KU vs Abraxane: drug minus Abraxane; for Mean Difference (95% CI) of KU vs Vincristine: drug minus Vincristine
Description: Apoptosis(KU)=(VmaxDrug Candidate Treated−VmaxControl)×60×X/(ODcontrol−ODblank)
Within 24 to 48 hours of collection, the specimen was minced, digested with 0.25% trypsin and 0.08% DNase for 1-2 hours at 37 C.°, and then filtered through a 100 micrometer cell strainer. When necessary, non-viable cells were removed by density gradient centrifugation. The cell suspension was then incubated for 30 min at 37° C. in a tissue culture flask to remove macrophages by adherence. For epithelial tumors lymphocytes were removed by 30 minute incubation with CD2 antibody conjugated magnetic beads for T lymphocytes and CD19 antibody conjugated magnetic beads for B lymphocytes. Remaining macrophages were removed, if necessary, using CD14 antibody conjugated magnetic beads. The final cell suspension was plated into a 96-well half-area plate, 120 microliter aliquot per well. The plate was incubated overnight at 37° C. with 5% carbon dioxide humidified atmosphere. 5×10^4 to 1.5×10^5 cells were seeded per well depending on the cell volume to give adequate well-bottom coverage.
Within 24 to 48 hours of collection, the specimen was treated as follows in order to purify and isolate cells from solid tumors: • Take the specimen out of the transport tube. • Put in a petri dish in 13 ml of PBS+high concentration of antibiotics (200 units/ml Penicillin+200 μg/ml streptomycin) and take measurements and picture of the specimen. […] In that case, one may make the determination to do a “pre-filtration” using sterile gauze over a 50 ml tube. Then proceed with the cell strainer filtration process referenced above. • Centrifuge the filtered cell suspension 1500 RPM 5 min • Discard the supernatant. To the pellet, add 5 ml of red blood cell lysis solution (standard NH4Cl containing lysis solution: Nh4Cl0.15M+KHCO3 10 mM+EDTA-4Na 0.1 mM, pH 7.2), incubate 2-3 min and add 5 ml of RPMI 10% FBS. • Centrifuge 5 min 1500 RPM. Resuspend the pellet in RPMI 10% FBS (1-10 ml depending on the pellet size). • Collect the second fraction in the enzyme and repeat the steps above. • Check the viability of all fractions and pool. Do a cytospin stain with Wright Giemsa to verify the cell content of the population. NOTE: this is done numerous times during the process of purification. • 3) When necessary, non-viable cells were removed by density gradient centrifugation. • Density gradient centrifugation (optiprep): first layer=2 ml cells+4.45 ml optiprep 40% in RPMI, second layer=optiprep 22.5% in RPMI, 3rd layer=0.5 ml of RPMI. Centrifuge at 2000 RPM for 20 min • Collect the viable cell layer, add 10 ml of RPMI 10% FBS, centrifuge at 1500 RPM for 5 min • Resuspend the pellet in RPMI 10% FBS (volume depends on the pellet size and on the next step required). • If mucin is present in the specimen: resuspend the pellet in 10 ml of PBS+20 mM DTT and incubate at 4° C. for 30 min to disintegrate the mucin. Wash with RPMI 1500 rpm for 5 min Resuspend the pellet in RPMI 10% FBS. • If the specimen is highly necrotic with presence of debris: Percoll 20% in HBSS, centrifuge at 800×g for 10 min • 4) The cell suspension was then incubated for 20 min at 37° C. in a tissue culture flask to remove macrophages by adherence. • The size and quantity of the flask and the volume used depends on the amount of cells.

[3] = person, tumor of unknown primary, maximum apoptotic response over the concentrations tested
[4] = KU compared per patient, % of 35 patients
[5] = KU compared per patient, % of 11 patients
[6] = KU compared per patient, % of 14 patients
[7] = KU compared per patient, % of 13 patients

Compound | Max Resp. (KU) [1, 3] | KU Mean [2] | KU Median [2] | also measured
Nc1ncn([C@@H]2O[C@H](CO)[C@@H](O)[C@H]2O)c(=O)n1 [Vidaza] | 4.3 KU | – | – | –
CC(=O)O[C@@]12CO[C@@H]1C[C@H](O)[C@@]1(C)C(=O)[C@H](O)C3=C(C)[C@@H](OC(=O)[C@H](O)[C@@H](NC(=O)OC(C)(C)C)c4ccccc4)C[C@@](O)([C@@H](OC(=O)c4ccccc4)[C@H]21)C3(C)C [Taxotere, docetaxel] | 2.3 KU | 2.1 KU | 1.9 KU | Taxol and Taxotere < 1 [2, 4]: (14%); Taxotere = Taxol +/− 0.57 and both > 1 [2, 4]: (17%); Taxotere > Taxol by more than 0.57 and Taxotere > 1 [2, 4]: (37%); Taxotere > Taxol by more than 0.57 and Taxotere > 1 ([2]; KU compared per patient, % of 35 patients, listed as docetaxel): 37%; Mean Difference (95% CI) of KU vs Abraxane ([2]; patient pairwise comparison): 0.98 KU; Mean Difference (95% CI) of KU vs Taxol ([2]; patient pairwise comparison, drug minus Taxol): 0.05 KU
O=C1[O][Pt]2([NH][C@@H]3CCCC[C@H]3[NH]2)[O]C1=O [Oxali, oxaliplatin] | – | 1.9 KU | 1.8 KU | Carbo and Cisplatin and Oxali < 1 [2, 5]: (9%); Max (Carbo or Cisplatin) = Oxali +/− 0.57 and both > 1 [2, 5]: (36%); Max (Carbo or Cisplatin) > Oxali by more than 0.57 and Max (Carbo or Cisplatin) > 1 [2, 5]: (36%); Oxali > Max (Carbo or Cisplatin) + 0.57 [2, 5]: (9%); Mean Difference (95% CI) of KU vs Carbo ([2]; patient pairwise comparison, drug minus Carbo): 0.34 KU; % >1 ([2]; share of samples with KU >1): 82%; % >3 ([2]; share of samples with KU >3): 9%; Max Resp. (KU) [1]: 6.7 KU
CCC1=C[C@@H]2CN(C1)Cc1c([nH]c3ccccc13)[C@@](C(=O)OC)(c1cc3c(cc1OC)N(C)[C@H]1[C@@](O)(C(=O)OC)[C@H](OC(C)=O)[C@]4(CC)C=CCN5CC[C@]31[C@@H]54)C2 [Vinor, vinorelbine] | 3.1 KU | 1.8 KU | 1.5 KU | Max (Vcr or Vnbl) > Vinor + 0.57 [2, 6]: (0%); Vcr and Vnbl and Vinor < 1 [2, 6]: (14%); Vinor = Max (Vcr or Vnbl) +/− 0.57 and both > 1 [2, 6]: (36%); Vinor > Max (Vcr or Vnbl) by more than 0.57 and Vinroel > 1 [2, 6]: (29%); Mean Difference (95% CI) of KU vs Vincristine ([2]; patient pairwise comparison): 0.63 KU; Mean Difference (95% CI) of KU vs Vincristine ([2]; patient pairwise comparison, listed as vinorelbine): APOP>vincristine; Mean Difference (95% CI) of KU vs Vnbl ([2]; patient pairwise comparison, drug minus Vnbl): 0.14 KU
COc1cc([C@@H]2c3cc4c(cc3[C@@H](O[C@@H]3O[C@@H]5CO[C@@H](C)O[C@H]5[C@H](O)[C@H]3O)[C@H]3COC(=O)[C@H]23)OCO4)cc(OC)c1O [Etoposide, etoposide] | 0.8 KU | 1.3 KU | 1.3 KU | –
CNNCc1ccc(C(=O)NC(C)C)cc1 [Procarbazine] | 1.3 KU | – | – | –
Bleomycin | – | – | – | Max Resp. (KU) [1]: 1.1 KU
Nc1ccn([C@@H]2O[C@H](CO)[C@@H](O)C2(F)F)c(=O)n1 [Gemzar, gemcitabine] | 0.8 KU | 1.0 KU | 0.8 KU | –
N[C@@H](Cc1ccc(N(CCCl)CCCl)cc1)C(=O)O [Melphalan] | 5.3 KU | – | – | –
CC(C)C[C@H](NC(=O)[C@H](Cc1ccccc1)NC(=O)c1cnccn1)B(O)O [Velcade] | 3.8 KU | – | – | –
CN(Cc1cnc2nc(N)nc(N)c2n1)c1ccc(C(=O)N[C@@H](CCC(=O)O)C(=O)O)cc1 [Methotrexate, methotrexate] | 0.8 KU | 0.9 KU | 0.9 KU | –
O=c1[nH]cc(F)c(=O)[nH]1 [5FU, 5-fluorouracil] | 0.3 KU | 0.7 KU | 0.6 KU | 5fu > Xeloda + 0.57 [2, 7]: 2/13 (15%)
O=C1c2c(O)ccc(O)c2C(=O)c2c(NCCNCCO)ccc(NCCNCCO)c21 [Mitox, mitoxantrone] | – | 1.2 KU | 1.2 KU | –
CC(=O)O[C@H]1C(=O)[C@@]2(C)[C@H]([C@H](OC(=O)c3ccccc3)[C@]3(O)C[C@H](OC(=O)[C@H](O)[C@@H](NC(=O)c4ccccc4)c4ccccc4)C(C)=C1C3(C)C)[C@]1(OC(C)=O)CO[C@@H]1C[C@@H]2O [Taxol, paclitaxel] | 1.6 KU | 2.1 KU | 1.9 KU | Mean Difference (95% CI) of KU vs Abraxane ([2]; patient pairwise comparison): 1.20 KU
CCN(CC)CCNC(=O)c1c(C)[nH]c(/C=C2\C(=O)Nc3ccc(F)cc32)c1C [Sunifinib, Sunitinib] | 7.9 KU | – | – | –
O=NN(CCCl)C(=O)NC1CCCCC1 [CCNU] | 0.8 KU | – | – | –
COc1cccc2c1C(=O)c1c(O)c3c(c(O)c1C2=O)C[C@@](O)(C(C)=O)C[C@@H]3O[C@H]1C[C@H](N)[C@H](O)[C@H](C)O1 [Danorubicin, Daunorubicin] | 3.1 KU | – | – | –
Cn1nnc2c(C(N)=O)ncn2c1=O [Temozolomide] | 1.5 KU | – | – | –
CCCCCOC(=O)Nc1nc(=O)n([C@@H]2O[C@H](C)[C@@H](O)[C@H]2O)cc1F [Xeloda, capcitabine] | – | 0.7 KU | 0.7 KU | 5fu and Xeloda < 1 [2, 7]: 8/13 (62%); Xeloda = 5fu +/− 0.57 and both > 1 [2, 7]: 0/13 (0%); Xeloda > 5fu by more than 0.57 and Xeloda > 1 [2, 7]: 2/13 (15%); Mean Difference (95% CI) of KU vs 5FU ([2]; patient pairwise comparison, drug minus 5FU): 0.26 (−0.26 to 0.77) KU
Cc1c2oc3c(C)ccc(C(=O)N[C@@H]4C(=O)N[C@H](C(C)C)C(=O)N5CCC[C@H]5C(=O)N(C)CC(=O)N(C)[C@@H](C(C)C)C(=O)O[C@@H]4C)c3nc-2c(C(=O)N[C@@H]2C(=O)N[C@H](C(C)C)C(=O)N3CCC[C@H]3C(=O)N(C)CC(=O)N(C)[C@@H](C(C)C)C(=O)O[C@@H]2C)c(N)c1=O [Dactinomycin] (I: T[dV]P[Sar][NMeV] / II: T[dV]P[Sar][NMeV]; ester I:1-I:C, II:1-II:C; linker I:N-II:N via Actinocin(9to1)) | 4.0 KU | – | – | –
Cc1ccc(NC(=O)c2ccc(CN3CCN(C)CC3)cc2)cc1Nc1nccc(-c2cccnc2)n1 [Gleevec (imatinib), imatinib] | 1.5 KU | – | – | –
CNC(=O)c1cc(Oc2ccc(NC(=O)Nc3ccc(Cl)c(C(F)(F)F)c3)cc2)ccn1 [Sorafenib] | 3.8 KU | – | – | –
C/C(=C\c1csc(C)n1)[C@@H]1C[C@@H]2O[C@]2(C)CCC[C@H](C)[C@H](O)[C@@H](C)C(=O)C(C)(C)[C@@H](O)CC(=O)N1 [Ixabepilone, ixabepilone] | – | 1.3 KU | 1.2 KU | –
Nc1nc2[nH]cc(CCc3ccc(C(=O)N[C@@H](CCC(=O)O)C(=O)O)cc3)c2c(=O)[nH]1 [Alimta, pemetrexed] | 0.6 KU | – | – | –
C#Cc1cccc(Nc2ncnc3cc(OCCOC)c(OCCOC)cc23)c1 [Tarceva] | 0.7 KU | – | – | –
C=C1C[C@@H]2CC[C@@]34C[C@H]5O[C@H]6[C@@H](O3)[C@H]3O[C@H](CC[C@@H]3O[C@H]6[C@H]5O4)CC(=O)C[C@@H]3[C@@H](OC)[C@@H](C[C@H](O)CN)O[C@H]3C[C@H]3O[C@@H](CC[C@@H]1O2)C[C@@H](C)C3=C [Eribulin, eribulin] | – | 1.0 KU | 1.0 KU | –
CN(C)/N=N/c1[nH]cnc1C(N)=O [Dacarbazine] | 0.6 KU | – | – | –
CCc1c2c(nc3ccc(OC(=O)N4CCC(N5CCCCC5)CC4)cc13)-c1cc3c(c(=O)n1C2)COC(=O)[C@]3(O)CC [Irinotecan] | 2.6 KU | – | – | –
